From patent publication US20250171430A1, “PYRAZOLYL COMPOUNDS AS KV7 CHANNEL ACTIVATORS” (Biohaven Therapeutics Ltd., priority 2022, published 2025)

target: T1, Kv7.2/7.3 (Homo sapiens, UniProt O43525+O43526); experiment: Kv7.2/7.3 Activation Assay (Thallium Flux Assay); type: cell-based; details: hKV7.2/7.3 cell line; test compound at single concentration of 10 μM; fluorescence at 90 sec normalized to positive control (retigabine, 30 μM)
T1 construct: Kv7.2 tetracycline-induced, Kv7.3 constitutive
Outline: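 Human Kv7.2/7.3 cells with Kv7.2 induced overnight by 10 ng/mL tetracycline were loaded with FluxOR II Green for 1 h at 37 °C. Compounds were tested at 10 μM in 0.1% DMSO/extracellular solution, pH 7.4. Thallium/potassium stimulus was added after a 15 s baseline, and 90 s fluorescence (ex 475/em 530 nm) was normalized to 30 μM retigabine.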

Row | SMILES | Kv7.2/7.3 Activity
1 | Cn1nc(NC(=O)[C@H]2C[C@@H](C(F)(F)F)C2)c(C2CCC2)c1-c1ccc(F)cc1 [Compound 118, (1S,3S)-N-(4-cyclobutyl-5-(4-fluorophenyl)-1-methyl-1H-pyrazol-3-yl)-3-(trifluoromethyl)cyclobutane-1-carboxamide] | ++ (“++” High Activity ≥ 0.7)
2 | Cn1nc(NC(=O)C[C@H]2CC(F)(F)C2(F)F)c(C2CC(F)(F)C2)c1-c1ccc(OC(F)(F)F)cc1 [Compound 40, (S)-N-(4-(3,3-difluorocyclobutyl)-1-methyl-5-(4-(trifluoromethoxy)phenyl)-1H-pyrazol-3-yl)-2-(2,2,3,3-tetrafluorocyclobutyl)acetamide] | ++ (“++” High Activity ≥ 0.7)
3 | Cn1nc(NC(=O)C2(C(F)(F)F)CC2)c(C2CCC2)c1-c1cccc(F)c1 [Compound 166, N-(4-cyclobutyl-5-(3-fluorophenyl)-1-methyl-1H-pyrazol-3-yl)-1-(trifluoromethyl)cyclopropane-1-carboxamide] | ++ (“++” High Activity ≥ 0.7)
4 | Cn1nc(NC(=O)C2(C(F)(F)F)CC2)c(C2CCC2)c1C1CC(C)(C)C1 [Compound 151, N-(4-cyclobutyl-5-(3,3-dimethylcyclobutyl)-1-methyl-1H-pyrazol-3-yl)-1-(trifluoromethyl)cyclopropane-1-carboxamide] | ++ (“++” High Activity ≥ 0.7)
5 | C[C@@H](C(=O)Nc1nn(CC(F)(F)F)c(-c2ccc(F)cc2)c1C1CCC1)C1(C(F)(F)F)CC1 [Compound 143, (R)-N-(4-cyclobutyl-5-(4-fluorophenyl)-1-(2,2,2-trifluoroethyl)-1H-pyrazol-3-yl)-2-(1-(trifluoromethyl)cyclopropyl)propanamide] | − (“−” No Activity < 0.15)
6 | Cn1nc(NC(=O)[C@@H]2C[C@H]2F)c(C2CCC2)c1-c1ccc(F)cc1 [Compound 219, (1S,2R)-N-(4-cyclobutyl-5-(4-fluorophenyl)-1-methyl-1H-pyrazol-3-yl)-2-fluorocyclopropane-1-carboxamide] | − (“−” No Activity < 0.15)
7 | N#CCn1nc(NC(=O)C[C@@H]2CC(F)(F)C2(F)F)c(C2CCC2)c1-c1ccc(F)cc1 [Compound 45, (R)-N-(1-(cyanomethyl)-4-cyclobutyl-5-(4-fluorophenyl)-1H-pyrazol-3-yl)-2-(2,2,3,3-tetrafluorocyclobutyl)acetamide] | ++ (“++” High Activity ≥ 0.7)
8 | Cn1nc(NC(=O)CC2(C(F)(F)F)CC2)c(C2CCC2)c1CC1CC1 [Compound 79, N-(4-cyclobutyl-5-(cyclopropylmethyl)-1-methyl-1H-pyrazol-3-yl)-2-(1-(trifluoromethyl)cyclopropyl)acetamide] | ++ (“++” High Activity ≥ 0.7)
9 | Cn1nc(NC(=O)C[C@H](O)C(C)(C)C)c(C2CCC2)c1-c1ccc(F)cc1 [Compound 115, (S)-N-(4-cyclobutyl-5-(4-fluorophenyl)-1-methyl-1H-pyrazol-3-yl)-3-hydroxy-4,4-dimethylpentanamide] | + (“+” Moderate Activity 0.15-0.7)
10 | Cn1nc(NC(=O)[C@H]2CC2(F)F)c(C2CCC2)c1C1CC(C)(C)C1 [Compound 148, (R)-N-(4-cyclobutyl-5-(3,3-dimethylcyclobutyl)-1-methyl-1H-pyrazol-3-yl)-2,2-difluorocyclopropane-1-carboxamide] | ++ (“++” High Activity ≥ 0.7)
11 | Cn1nc(NC(=O)CC2(C(F)(F)F)CC2)c(C2CCC2)c1-c1ccc(OC(F)(F)F)cc1 [Compound 31, N-(4-cyclobutyl-1-methyl-5-(4-(trifluoromethoxy)phenyl)-1H-pyrazol-3-yl)-2-(1-(trifluoromethyl)cyclopropyl)acetamide] | ++ (“++” High Activity ≥ 0.7)
12 | Cn1nc(NC(=O)NC2(C)COC2)c(C2CCC2)c1-c1ccc(F)cc1 [Compound 252, 1-(4-cyclobutyl-5-(4-fluorophenyl)-1-methyl-1H-pyrazol-3-yl)-3-(3-methyloxetan-3-yl)urea] | + (“+” Moderate Activity 0.15-0.7)
13 | Cn1nc(NC(=O)[C@H]2CC2(F)F)c(C2CC2)c1-c1ccc(F)cc1 [Compound 164, (R)-N-(4-cyclopropyl-5-(4-fluorophenyl)-1-methyl-1H-pyrazol-3-yl)-2,2-difluorocyclopropane-1-carboxamide] | ++ (“++” High Activity ≥ 0.7)
14 | Cn1nc(NC(=O)[C@@H]2CC2(F)F)c(C2CCC2)c1-c1ccc(F)cc1 [Compound 134, (S)-N-(4-cyclobutyl-5-(4-fluorophenyl)-1-methyl-1H-pyrazol-3-yl)-2,2-difluorocyclopropane-1-carboxamide] | − (“−” No Activity < 0.15)
15 | Cn1nc(NC(=O)CC(C)(C)C(F)(F)F)c(C2CCC2)c1-c1cnc(C(F)(F)F)s1 [Compound 49, N-(4-cyclobutyl-1-methyl-5-(2-(trifluoromethyl)thiazol-5-yl)-1H-pyrazol-3-yl)-4,4,4-trifluoro-3,3-dimethylbutanamide] | + (“+” Moderate Activity 0.15-0.7)
16 | Cn1nc(NC(=O)C2CC(F)(F)C2)c(C2CCC2)c1-c1cc(F)cc(F)c1 [Compound 255, N-(4-cyclobutyl-5-(3,5-difluorophenyl)-1-methyl-1H-pyrazol-3-yl)-3,3-difluorocyclobutane-1-carboxamide] | ++ (“++” High Activity ≥ 0.7)
17 | CN(CC(F)(F)F)C(=O)Nc1nn(C)c(C2CC(F)(F)C2)c1C1CCC1 [Compound 291, 3-(4-cyclobutyl-5-(3,3-difluorocyclobutyl)-1-methyl-1H-pyrazol-3-yl)-1-methyl-1-(2,2,2-trifluoroethyl)urea] | ++ (“++” High Activity ≥ 0.7)
18 | Cn1nc(NC(=O)CC(C)(C)C)c(C2CCC2)c1-c1ccc(C(C)(C)O)cc1 [Compound 29, N-(4-cyclobutyl-5-(4-(2-hydroxypropan-2-yl)phenyl)-1-methyl-1H-pyrazol-3-yl)-3,3-dimethylbutanamide] | − (“−” No Activity < 0.15)
19 | Cn1nc(NC(=O)[C@@H]2CC2(F)F)c(C2CCC2)c1-c1ccccc1F [Compound 162, (S)-N-(4-cyclobutyl-5-(2-fluorophenyl)-1-methyl-1H-pyrazol-3-yl)-2,2-difluorocyclopropane-1-carboxamide] | + (“+” Moderate Activity 0.15-0.7)
20 | Cn1nc(NC(=O)C2CC(C)(C)C2)c(C2CCC2)c1-c1ccc(OC(F)(F)F)cc1 [Compound 185, N-(4-cyclobutyl-1-methyl-5-(4-(trifluoromethoxy)phenyl)-1H-pyrazol-3-yl)-3,3-dimethylcyclobutane-1-carboxamide] | ++ (“++” High Activity ≥ 0.7)
21 | Cc1c(C2CCC2)c(NC(=O)CC2CC(F)(F)C2)nn1Cc1ccc(F)cc1 [Compound 93, N-(4-cyclobutyl-1-(4-fluorobenzyl)-5-methyl-1H-pyrazol-3-yl)-2-(3,3-difluorocyclobutyl)acetamide] | + (“+” Moderate Activity 0.15-0.7)
22 | Cn1nc(NC(=O)C(C2CC2)C2CC2)c(C2CCC2)c1-c1ccc(F)cc1 [Compound 196, N-(4-cyclobutyl-5-(4-fluorophenyl)-1-methyl-1H-pyrazol-3-yl)-2,2-dicyclopropylacetamide] | + (“+” Moderate Activity 0.15-0.7)
23 | Cn1nc(NC(=O)NC2CC(F)(F)C2)c(C2CCC2)c1-c1cc(F)c(F)c(F)c1 [Compound 288, 1-(4-cyclobutyl-1-methyl-5-(3,4,5-trifluorophenyl)-1H-pyrazol-3-yl)-3-(3,3-difluorocyclobutyl)urea] | ++ (“++” High Activity ≥ 0.7)
24 | Cn1nc(NC(=O)[C@@H]2CC2(F)F)c(C2CCC2)c1-c1ccc(Cl)s1 [Compound 155, (S)-N-(5-(5-chlorothiophen-2-yl)-4-cyclobutyl-1-methyl-1H-pyrazol-3-yl)-2,2-difluorocyclopropane-1-carboxamide] | ++ (“++” High Activity ≥ 0.7)
25 | Cn1nc(NC(=O)C2CCC2)c(C2CCC2)c1-c1ccc(OC(F)(F)F)cc1 [Compound 190, N-(4-cyclobutyl-1-methyl-5-(4-(trifluoromethoxy)phenyl)-1H-pyrazol-3-yl)cyclobutanecarboxamide] | ++ (“++” High Activity ≥ 0.7)
26 | Cn1nc(NC(=O)C2CC(F)(F)C2)c(C2CCC2)c1-c1cccc(F)c1 [Compound 193, N-(4-cyclobutyl-5-(3-fluorophenyl)-1-methyl-1H-pyrazol-3-yl)-3,3-difluorocyclobutane-1-carboxamide] | ++ (“++” High Activity ≥ 0.7)
27 | Cn1nc(NC(=O)CC2CC(F)(F)C2)c(C2CCC2)c1C1CCCCC1 [Compound 70, N-(4-cyclobutyl-5-cyclohexyl-1-methyl-1H-pyrazol-3-yl)-2-(3,3-difluorocyclobutyl)acetamide] | ++ (“++” High Activity ≥ 0.7)
28 | Cn1nc(NC(=O)C2CC(F)(F)C2)c(C2CCC2)c1C1CC(C)(C)C1 [Compound 188, N-(4-cyclobutyl-5-(3,3-dimethylcyclobutyl)-1-methyl-1H-pyrazol-3-yl)-3,3-difluorocyclobutane-1-carboxamide] | ++ (“++” High Activity ≥ 0.7)
29 | Cn1nc(NC(=O)[C@H]2CC2(C)C)c(C2CCC2)c1-c1ccc(F)cc1 [Compound 110, (S)-N-(4-cyclobutyl-5-(4-fluorophenyl)-1-methyl-1H-pyrazol-3-yl)-2,2-dimethylcyclopropane-1-carboxamide] | ++ (“++” High Activity ≥ 0.7)
